Reference: PubChem BioAssay (NCI)
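Assay format: 96-well plates, 48-hour exposure. At the GI50, growth is halved. TGI: concentration producing complete growth inhibition.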 Where a SMILES comes first, the peptide text is derived from it. [ ]: non-standard residue; d: D form. The star is where a group is joined. ξ: configuration not given here. X37 = O=C(OCc1ccccc1)[C@@H]1CCC[C@H]1N*; Fmoc = O=C(OCC1c2ccccc2-c2ccccc21)*; ξW = NC(Cc1c[nH]c2ccccc12)C(=O)O; ξF = NC(Cc1ccccc1)C(=O)O; Boc = CC(C)(C)OC(=O)*; ξK = NCCCCC(N)C(=O)O; ξT = CC(O)C(N)C(=O)O; OBn = c1ccc(CO*)cc1; Bn = c1ccc(C*)cc1; tBu = CC(C)(C)*

Columns and labels:
Experiment in all cases: growth of human tumour cells (NCI), 48 h
SF-268 CNS = tested on: SF-268 CNS
HOP-62 NSCLC = tested on: HOP-62 NSCLC
SNB-19 CNS = tested on: SNB-19 CNS
NCI-H522 lung = tested on: NCI-H522 lung
MALME-3M melanoma = tested on: MALME-3M melanoma
SW-620 colon = tested on: SW-620 colon
UO-31 renal = tested on: UO-31 renal
RPMI-8226 leukemia = tested on: RPMI-8226 leukemia
TK-10 renal = tested on: TK-10 renal
A549 NSCLC = tested on: A549 NSCLC
HCT-116 colon = tested on: HCT-116 colon
SF-295 CNS = tested on: SF-295 CNS
CAKI-1 renal = tested on: CAKI-1 renal
K-562 leukemia = tested on: K-562 leukemia
BT-549 breast = tested on: BT-549 breast
NCI-H226 lung = tested on: NCI-H226 lung
PC-3 prostate = tested on: PC-3 prostate
SF-539 CNS = tested on: SF-539 CNS

| SMILES | TGI (SF-268 CNS) [µM] | TGI (HOP-62 NSCLC) [µM] | TGI (SNB-19 CNS) [µM] | TGI (NCI-H522 lung) [µM] | TGI (MALME-3M melanoma) [µM] | TGI (SW-620 colon) [µM] | TGI (UO-31 renal) [µM] | TGI (RPMI-8226 leukemia) [µM] | TGI (TK-10 renal) [µM] | TGI (A549 NSCLC) [µM] | TGI (HCT-116 colon) [µM] | TGI (SF-295 CNS) [µM] | TGI (CAKI-1 renal) [µM] | TGI (K-562 leukemia) [µM] | TGI (BT-549 breast) [µM] | TGI (NCI-H226 lung) [µM] | TGI (PC-3 prostate) [µM] | TGI (SF-539 CNS) [µM] | GI50 (NCI-H522 lung) [µM] | GI50 (UO-31 renal) [µM] |
| --- | --- | --- | --- | --- | --- | --- | --- | --- | --- | --- | --- | --- | --- | --- | --- | --- | --- | --- | --- | --- |
| CC1OC(OP(=O)(OCc2ccccc2)OCc2ccccc2)C(OC(=O)c2ccccc2)C(OC(=O)c2ccccc2)C1I (centres undefined) | > 100 | > 100 | > 100 | 88.2 | > 100 | > 100 | > 100 | 97.8 | > 100 | > 100 | > 100 | > 100 | > 100 | > 100 | – | – | – | – | – | – |
| Brc1ccc(-c2ccc(-c3ccc(Br)s3)s2)s1 | > 100 | > 100 | > 100 | – | – | > 100 | > 100 | > 100 | > 100 | > 100 | > 100 | > 100 | – | > 100 | > 100 | > 100 | > 100 | > 100 | – | – |
| C[C@H](NC(=O)OC1C2C=CC(O)C1CC2)c1ccccc1 (some centres undefined) | > 100 | > 100 | > 100 | > 100 | > 100 | – | > 100 | 48.6 | > 100 | > 100 | > 100 | > 100 | > 100 | > 100 | – | > 100 | – | > 100 | – | – |
| CCOc1ccc(NC(=O)C2=C(C)NC(C)=C(C(=O)Nc3ccc(OCC)cc3)C2c2ccc([N+](=O)[O-])cc2)cc1 | > 100 | > 100 | > 100 | > 100 | > 100 | > 100 | > 100 | 64.2 | > 100 | > 100 | – | > 100 | > 100 | > 100 | – | > 100 | – | > 100 | – | – |
| CC1(C)COC(c2cccc(C3=NC(C)(C)CO3)c2)=N1 | > 100 | > 100 | > 100 | – | > 100 | > 100 | > 100 | > 100 | > 100 | > 100 | > 100 | – | > 100 | > 100 | > 100 | > 100 | > 100 | > 100 | – | – |
| CC1(C(O)c2ccccc2)CN(C(C)(C)C)C(=O)/C1=C\Sc1ccccc1 (centres undefined) | 43.5 | > 100 | > 100 | 22.9 | – | > 100 | > 100 | > 100 | > 100 | > 100 | > 100 | > 100 | > 100 | > 100 | > 100 | – | > 100 | > 100 | – | – |
| CC(OC(C)(C)C)C(NC(=O)C(CCCCNC(=O)OC(C)(C)C)NC(=O)C(Cc1c[nH]c2ccccc12)NC(=O)C(Cc1ccccc1)NC(=O)OCC1c2ccccc2-c2ccccc21)C(=O)NC(Cc1ccccc1)C(=O)N[C@@H]1CCC[C@H]1C(=O)OCc1ccccc1 (some centres undefined) (Fmoc-[ξF][ξW][ξK](Boc)[ξT](tBu)[ξF]-X37) | > 100 | > 100 | – | > 100 | > 100 | > 100 | > 100 | > 100 | > 100 | > 100 | > 100 | > 100 | > 100 | > 100 | – | > 100 | > 100 | > 100 | – | – |
| NC12c3c4cccc3Oc3cccc(c31)Oc1cccc(c12)O4 | > 50 | > 50 | > 50 | > 50 | – | > 50 | > 50 | > 50 | – | > 50 | > 50 | > 50 | > 50 | > 50 | > 50 | > 50 | > 50 | > 50 | – | – |
| O=c1[nH]c2ccc(CC(=S)N3CCN(c4ccccc4)CC3)cc2s1 | > 100 | 50.1 | > 100 | – | 55.5 | > 100 | – | 49.8 | > 100 | – | > 100 | > 100 | > 100 | > 100 | > 100 | 69.6 | > 100 | > 100 | – | – |
| c1ccc(/C(=N/Nc2cnccn2)c2ncccn2)cc1 | > 100 | > 100 | > 100 | 44.7 | – | > 100 | > 100 | > 100 | – | > 100 | > 100 | > 100 | > 100 | > 100 | > 100 | – | > 100 | > 100 | – | – |
| CC(C)CC(NC(=O)C(Cc1ccccc1)NC(=O)C(COCc1ccccc1)NC(=O)OC(C)(C)C)C(=O)OCc1ccccc1 (stereo not drawn) (Boc-Ser(Bn)-Phe-Leu-OBn; configuration not given here) | 43 | > 100 | > 100 | 31.9 | > 100 | 56.7 | > 100 | 33.2 | > 100 | – | 32.9 | 51.1 | > 100 | 45.2 | – | – | 57.6 | 72.3 | – | – |
| Cc1cccc(Nc2cn(CCOc3ccccc3)c(=O)[nH]c2=O)c1 | > 100 | > 100 | > 100 | – | – | > 100 | > 100 | > 100 | – | 61.9 | > 100 | > 100 | > 100 | > 100 | – | – | 72.3 | – | – | – |
| CCC1OC2C(CC=C(C)C)=C3OC(C)(O)C(C)(CC)C(O)C3=C3OC(=O)C=C1C32 (centres undefined) | > 100 | – | > 100 | – | – | > 100 | > 100 | > 100 | > 100 | > 100 | > 100 | > 100 | > 100 | > 100 | 71 | > 100 | > 100 | 53.6 | – | – |
| N#Cc1nn(-c2ccc(Cl)cc2)c(N)c2c(=N)n3nc(-c4ccccc4)cc3nc12 | – | > 33.8 | > 100 | > 100 | – | > 100 | 98.5 | – | > 100 | > 42.1 | > 100 | > 24.5 | > 100 | > 100 | – | > 100 | – | – | 36.4 | 31.5 |
